Molecular target: T1, EsNinaBl (Eriocheir sinensis, UniProt Z9UJ24V2T0)
T1 construct: full ORF in pGEX-4T (GST fusion vector), expressed in beta-carotene-producing E. coli BL(DE3) with pAC-BETAipi; primer-encoded N-terminus MSTDEGG, C-terminus FIPAEAQ
T1 sequence (Z9UJ24V2T0 1-523): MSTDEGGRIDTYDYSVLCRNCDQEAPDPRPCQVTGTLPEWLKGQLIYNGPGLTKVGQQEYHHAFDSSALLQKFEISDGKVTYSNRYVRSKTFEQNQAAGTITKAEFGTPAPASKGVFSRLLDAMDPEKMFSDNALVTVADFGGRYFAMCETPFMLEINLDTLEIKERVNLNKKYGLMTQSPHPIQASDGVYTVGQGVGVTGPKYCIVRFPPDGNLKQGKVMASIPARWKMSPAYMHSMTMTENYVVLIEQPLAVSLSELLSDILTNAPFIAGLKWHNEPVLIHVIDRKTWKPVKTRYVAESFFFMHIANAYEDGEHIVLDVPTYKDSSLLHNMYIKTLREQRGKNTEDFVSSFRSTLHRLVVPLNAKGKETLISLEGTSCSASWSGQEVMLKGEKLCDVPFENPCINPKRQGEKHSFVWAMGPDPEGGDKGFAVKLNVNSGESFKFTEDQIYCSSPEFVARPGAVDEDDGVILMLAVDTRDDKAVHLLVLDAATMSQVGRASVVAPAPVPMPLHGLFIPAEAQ
Experiment: beta-carotene degradation and decolorization in beta-carotene-accumulating E. coli
Assay type: cell-based
Details: co-expression with pAC-BETAipi; […] IPTG induction; GST-fusion vector; products not identified

CC1=C(/C=C/C(C)=C/C=C/C(C)=C/C=C/C=C(C)/C=C/C=C(C)/C=C/C2=C(C)CCCC2(C)C)C(C)(C)CCC1 [β-carotene]
beta-carotene degradation and decolorization in beta-carotene-accumulating E. co: evident decolorization was observed in the β-carotene-accumulated bacteria expressing EsNinaBl
